From ChEMBL document CHEMBL1121531, “Steroidal alpha-methylene delta-lactones as potential antitumor agents” (J Med Chem, 1980)
Converted amounts (≈) assume the structure as drawn.

Legend:
Type in all cases: cell-based
[1] = (§1) Dose that required to inhibit cell growth for cytotoxicity against HEp-2 cells in culture; details: human, HEp-2 cells; read-out: LD50 (the source's name)
HEp-2 = test: as §1; details: human, hep-2
[2] = Dose that required to inhibit cell growth for cytotoxicity against human nasopharyngeal carcinoma (KB) cells in culture; details: read-out: LD50 (the source's name)

Row | SMILES | CC50 [1] | LD50 (HEp-2) | GI50 [2]
1 | C=C1CC2(CCC3(C)[C@@H](CC[C@H]4[C@@H]5CCC(=O)C5(C)CC[C@@H]43)C2)OC1=O (some centres undefined) | 0.58 µg/mL (≈ 1.63 µM) | – | –
2 | C[C@]12CC[C@H]3[C@@H](CCC4=CC(=O)CC[C@@]43C)[C@@H]1CC[C@@H]2O [TESTOSTERONE] | 0.44 µg/mL (≈ 1.53 µM) | 0.58 µg/mL | 1.27 µg/mL (≈ 4.4 µM)
3 | CC(=O)[C@H]1CC[C@H]2[C@@H]3CC[C@H]4CC(=O)CC[C@]4(C)[C@H]3CC[C@]12C | 0.84 µg/mL (≈ 2.65 µM) | – | –
4 | C=C1CC2(C)C3CCC4(C)C(OC(C)=O)CCC4C3CC[C@H]2OC1=O (some centres undefined) | – | – | 0.72 µg/mL (≈ 2.08 µM)
5 | C=C1CC2(C)C3CCC4(C)C(O)CCC4C3CC[C@H]2OC1=O (some centres undefined) | – | – | 0.76 µg/mL (≈ 2.5 µM)
6 | C=C1CC2C3CC[C@H]4CC(O)CCC4(C)C3CCC2(C)OC1=O (some centres undefined) | – | – | 1 µg/mL (≈ 3.14 µM)
7 | C=C1CC2(C)C3CCC4(C)C(CCCCCCCC)CCC4C3CC[C@H]2OC1=O (some centres undefined) | – | – | 0.82 µg/mL (≈ 2.05 µM)
